# In patent US20120094829A1, “Active Compound Combinations Having Insecticidal and Acaricidal Properties” (BAYER CROPSCIENCE AG, priority 2009, published 2012):
# What was measured:
# Assay type in all cases: in vivo
# [1] = test system: Phaedon cochleariae larvae; experiment: Phaedon cochleariae larvae test (sprayed cabbage leaves); settings: single active compound
# Description: Phaedon cochleariae Larvae Test
# (§1) Solvents: 78 parts by weight of acetone • • 1.5 parts by weight of dimethylformamide
# (§2) Emulsifier: 0.5 part by weight of alkylaryl polyglycol ether
# (§3) To produce a suitable preparation of active compound, 1 part by weight of active compound is mixed with the stated amount of solvent and emulsifier, and the concentrate is diluted with emulsifier-containing water to the desired concentration.
# Cabbage leaves (Brassica oleracea) are treated by spraying with the active ingredient formulation of the desired concentration and populated with larvae of the mustard beetle (Phaedon cochleariae) while the leaves are still moist.
# After the desired period of time, the kill in % is determined. 100% means that all beetle larvae have been killed; 0% means that none of the beetle larvae have been killed. The kill rates determined are entered into Colby's formula (see above).
# [2] = test system: Tetranychus urticae; experiment: Tetranychus urticae test (OP-resistant/spray treatment of bean leaf discs); settings: single active compound
# Description: Tetranychus urticae Test (OP-Resistant/Spray Treatment)
# as §1, §2, §3
# Discs of bean leaves (Phaseolus vulgaris) which are infested by all stages of the greenhouse red spider mite (Tetranychus urticae) are sprayed with the active compound preparation of the desired concentration.
# After the desired period of time, the effect in % is determined. 100% means that all of the spider mites have been killed; 0% means that none of the spider mites have been killed.
# [3] = test system: Spodoptera frugiperda; experiment: Spodoptera frugiperda test (sprayed cabbage leaves); settings: 100 g/ha, single active compound
# Description: Spodoptera frugiperda Test
# as §1, §2, §3
# Cabbage leaves (Brassica oleracea) are treated by being sprayed with the preparation of active compound of the desired concentration and are populated with larvae of the armyworm (Spodoptera frugiperda) while the leaves are still moist.
# After the desired period of time, the kill in % is determined. 100% means that all caterpillars have been killed; 0% means that none of the caterpillars have been killed. The kill rates determined are entered into Colby's formula (see above).
# [4] = test system: Myzus persicae; experiment: Myzus persicae test (spray treatment of infested cabbage leaves); settings: single active compound; for Kill in % after 6d: 0.8 g/ha; for Kill in % after 1d: 4 g/ha
# Description: as §1, §2, §3
# Cabbage leaves (Brassica oleracea) which are heavily infested by the green peach aphid (Myzus persicae) are treated by spraying with the active compound preparation of the desired concentration.
# After the desired period of time, the kill in % is determined. 100% means that all of the aphids have been killed; 0% means that none of the aphids have been killed. The kill rates determined are entered into Colby's formula (see above).
Compound,Kill in % after 2d ([1]; 100 g/ha) [%],Kill in % after 2d ([2]; 4 g/ha) [%],Kill in % after 6d ([2]; 4 g/ha) [%],Kill in % after 6d [3] [%],Kill in % after 6d [4] [%],Kill in % after 1d [4] [%],Kill in % after 2d ([1]; 20 g/ha) [%],Kill in % after 2d ([2]; 20 g/ha) [%],Kill in % after 6d ([1]; 20 g/ha) [%]
"O=C1C=C(N(CCF)Cc2ccc(Cl)nc2)CO1 [compound (I-4), 4-{[(6-chloropyrid-3-yl)methyl](2-fluoroethyl)amino}furan-2(5H)-one]",33,0,0,0,0,20,–,–,–
"O=C1C=C(N(Cc2ccc(Cl)nc2)CC(F)F)CO1 [compound (I-5), 4-{[(6-chloropyrid-3-yl)methyl](2,2-difluoroethyl)amino}furan-2(5H)-one]",–,0,0,–,30,–,0,0,–
"CN(Cc1cnc(Cl)c(F)c1)C1=CC(=O)OC1 [compound (I-6), 4-{[(6-chloro-5-fluoropyrid-3-yl)methyl](methyl)amino}furan-2(5H)-one]",–,0,0,–,–,–,–,–,0
"CCC(C)(C)C(=O)OC1=C(c2ccc(Cl)cc2Cl)C(=O)OC12CCCCC2 [spirodiclofen, reference compound]",–,–,–,–,–,0,–,–,–
"Cc1cc(C)c(C2=C(OC(=O)CC(C)(C)C)C3(CCCC3)OC2=O)c(C)c1 [spiromesifen, reference compound]",–,20,70,–,–,0,–,–,–
spirotetramat [reference compound],50,20,–,0,20,–,0,70,0
